From BindingDB's records for doi:10.1021/jm9600095 (Institut De Chimie Des Substances Naturelles Cnrs, 1997)

Assay: Reverse transcriptase activity was measured in the culture supernatant, concentration that reduces by 50% the HIV produced in the supernatant.

EC50	Compound
0.09 µM	Cc1cn(C2CC(N=[N+]=[N-])C(CO)O2)c(=O)n(CCO)c1=O (stereo not given) [1-(4-Azido-5-hydroxymethyl-tetrahydro-furan-2-yl)-3-(2-hydroxy-ethyl)-5-methyl-1H-pyrimidine-2,4-dione]
65 µM	C=CCn1c(=O)c(C)cn(C2CC(N=[N+]=[N-])C(CO)O2)c1=O (stereo not given) [3-Allyl-1-(4-azido-5-hydroxymethyl-tetrahydro-furan-2-yl)-5-methyl-1H-pyrimidine-2,4-dione]
140 µM	COCCOCn1c(=O)c(C)cn(C2CC(N=[N+]=[N-])C(CO)O2)c1=O (stereo not given) [1-(4-Azido-5-hydroxymethyl-tetrahydro-furan-2-yl)-3-(2-methoxy-ethoxymethyl)-5-methyl-1H-pyrimidine-2,4-dione]
14 µM	CCOC(=O)Cn1c(=O)c(C)cn(C2CC(N=[N+]=[N-])C(CO)O2)c1=O (stereo not given) [[3-(4-Azido-5-hydroxymethyl-tetrahydro-furan-2-yl)-5-methyl-2,6-dioxo-3,6-dihydro-2H-pyrimidin-1-yl]-acetic acid ethyl ester]
1.5 µM	Cc1cn(C2CC(N=[N+]=[N-])C(CO)O2)c(=O)n(CCN=[N+]=[N-])c1=O (stereo not given) [3-(2-Azido-ethyl)-1-(4-azido-5-hydroxymethyl-tetrahydro-furan-2-yl)-5-methyl-1H-pyrimidine-2,4-dione]
1.5 µM	CCOC(Cn1c(=O)c(C)cn(C2CC(N=[N+]=[N-])C(CO)O2)c1=O)OCC (stereo not given) [1-(4-Azido-5-hydroxymethyl-tetrahydro-furan-2-yl)-3-(2,2-diethoxy-ethyl)-5-methyl-1H-pyrimidine-2,4-dione]
0.12 µM	Cc1cn(C2CC(N=[N+]=[N-])C(CO)O2)c(=O)n(CCCO)c1=O (stereo not given) [1-(4-Azido-5-hydroxymethyl-tetrahydro-furan-2-yl)-3-(3-hydroxy-propyl)-5-methyl-1H-pyrimidine-2,4-dione]
4.7 µM	CCOP(=O)(Cn1c(=O)c(C)cn(C2CC(N=[N+]=[N-])C(CO)O2)c1=O)OCC (stereo not given) [[3-(4-Azido-5-hydroxymethyl-tetrahydro-furan-2-yl)-5-methyl-2,6-dioxo-3,6-dihydro-2H-pyrimidin-1-ylmethyl]-phosphonic acid diethyl ester]

The next lines start with the compound.

Compound	EC50
Cc1cn(C2CC(N=[N+]=[N-])C(CO)O2)c(=O)n(CC2CC(CO)=NO2)c1=O (stereo not given) [1-(4-Azido-5-hydroxymethyl-tetrahydro-furan-2-yl)-3-(3-hydroxymethyl-4,5-dihydro-isoxazol-5-ylmethyl)-5-methyl-1H-pyrimidine-2,4-dione]	1.3 µM
Cc1cn(C2CC(N=[N+]=[N-])C(CO)O2)c(=O)n(CC2COC(C)(C)O2)c1=O (stereo not given) [1-(4-Azido-5-hydroxymethyl-tetrahydro-furan-2-yl)-3-(2,2-dimethyl-[1,3]dioxolan-4-ylmethyl)-5-methyl-1H-pyrimidine-2,4-dione]	13 µM
COc1nc(=O)n(CCn2c(=O)c(C)cn(C3CC(N=[N+]=[N-])C(CO)O3)c2=O)cc1C (stereo not given) [1-(4-Azido-5-hydroxymethyl-tetrahydro-furan-2-yl)-3-[2-(4-methoxy-5-methyl-2-oxo-2H-pyrimidin-1-yl)-ethyl]-5-methyl-1H-pyrimidine-2,4-dione]	> 29 µM
Cc1cn(C2CC(n3c(=O)c(C)cn(C4CC(N=[N+]=[N-])C(CO)O4)c3=O)C(CO)O2)c(=O)[nH]c1=O (stereo not given) [1-(4-Azido-5-hydroxymethyl-tetrahydro-furan-2-yl)-3-[2-hydroxymethyl-5-(5-methyl-2,4-dioxo-3,4-dihydro-2H-pyrimidin-1-yl)-tetrahydro-furan-3-yl]-5-methyl-1H-pyrimidine-2,4-dione]	0.1 µM
Cc1cn(C2CC(N=[N+]=[N-])C(CO)O2)c(=O)n(CCCCCCO)c1=O (stereo not given) [1-(4-Azido-5-hydroxymethyl-tetrahydro-furan-2-yl)-3-(6-hydroxy-hexyl)-5-methyl-1H-pyrimidine-2,4-dione]	1.2 µM
Cc1cn(C2CC(N=[N+]=[N-])C(CO)O2)c(=O)n(CCn2c(=O)c(C)cn(C3CC(N=[N+]=[N-])C(CO)O3)c2=O)c1=O (stereo not given) [1-(4-azido-5-hydroxymethyltetrahydro-2-furanyl)-3-{2-[1-(4-azido-5-hydroxymethyltetrahydro-2-furanyl)-5-methyl-2,4-dioxo-1,2,3,4-tetrahydro-3-pyrimidinyl]ethyl}-5-methyl-1,2,3,4-tetrahydro-2,4-pyrimidinedione]	1.4 µM
Cc1cn(C2CC(N=[N+]=[N-])C(CO)O2)c(=O)n(N)c1=O (stereo not given) [3-Amino-1-(4-azido-5-hydroxymethyl-tetrahydro-furan-2-yl)-5-methyl-1H-pyrimidine-2,4-dione]	0.5 µM
